Non-standard residues stand in square brackets, D forms with d. No end group written: not given here. tri‑branched mPEG‑MAL 50 kDa = tri-branched maleimide-activated monomethoxy PEG, 50 kDa; Aib = CC(C)(N)C(=O)O
Experiments:
Format in all cases: in vivo
[1] = test system: obesity animal model (C57BL/6 mice, 60% high-fat diet); assay: intraperitoneal glucose tolerance test (ipGTT) in obesity model after 2-week administration (Experimental Example 3); parameters: blood glucose in ipGTT: unit not given here; conditions: after 2 weeks of 20 nmol/kg s.c. once every other day
Method: This experiment was performed in the same manner as in Experimental Example 2, and then the glucose tolerance was evaluated in a mouse model using an intraperitoneal glucose tolerance test (ipGTT).
After the 2-weeks administration of the drugs was completed in the same manner as in Experimental Example 2, 2 g/kg of glucose was administered intraperitoneally to measure a change in blood glucose with the elapse of time (0, 15, 30, 60, 90, and 120 minutes).

db/db mice [2] = assay: ipGTT in db/db mice after 12-day administration; parameters: blood glucose in ipGTT: unit not given here; conditions: for blood glucose in ipGTT: db/db mice after 12 days of 20 nmol/kg s.c. once every other day
Method: (§1) Next, to perform an intraperitoneal glucose tolerance test (ipGTT), 2 g/kg of glucose was administered intraperitoneally after the 12-day administration of the drug, and a change in blood glucose with the elapse of time (0, 15, 30, 60, 90, and 120 minutes) was measured. To determine a degree of long-term change in average blood glucose level, a level of glycated hemoglobin (HbA1c) was also measured after the drug administration.

db/db mice [3] = assay: glycated hemoglobin (HbA1c) in db/db mice after administration; conditions: db/db mice after administration of 20 nmol/kg s.c. once every other day; FIG. 3
Method: as §1

[4] = test system: obesity animal model (C57BL/6 mice, 60% high-fat diet); assay: final body weight with different dose and dosing frequency in obesity model (Experimental Example 5); conditions: FIG. 4
Method: First, an obesity animal model was prepared by feeding a 60% high-fat diet to normal C57BL/6 mice (approximately 6 weeks old) for approximately 24 weeks, and increasing the body weights of the mice to approximately 50 g in average. After 2 weeks, the final body weights of the mice were measured.

[5] = test system: obesity animal model (C57BL/6 mice, 60% high-fat diet); assay: blood glucose in obesity model, Examples 2 and 6 (Experimental Example 6); conditions: 20 nmol/kg s.c. once every other day for 2 weeks; FIG. 5
Method: (§2) To check a preventing or therapeutic effect of the conjugates of Examples 2 and 6, which had different amino acid sequences, on obesity or diabetes, an animal model of obesity was prepared by feeding a 60% high-fat diet to normal C57BL/6 mice (approximately 6 weeks old) for approximately 24 weeks, and increasing the body weights of the mice to approximately 50 g in average. Thereafter, each of the conjugates of Examples 2 or 6 was administered by subcutaneous injection at a dose of 20 nmol/kg once every other day for 2 weeks. As the control, PBS was administered instead of the conjugates of Examples. For 2 weeks when the conjugates of Examples 2 or 6 were administered, changes in blood glucose with time were measured. Also, to perform an intraperitoneal glucose tolerance test (ipGTT), 2 g/kg of glucose was administered intraperitoneally after the 2-week administration of the drug, and changes in blood glucose with the elapse of time (0, 15, 30, 60, 90, and 120 minutes) were measured.

[6] = test system: obesity animal model (C57BL/6 mice, 60% high-fat diet); assay: ipGTT in obesity model, Examples 2 and 6 (Experimental Example 6); conditions: 2 g/kg glucose i.p. after 2 weeks of 20 nmol/kg s.c. once every other day; FIG. 6
Method: as §2

[7] = test system: animal model of non-alcoholic fatty liver diseases (C57BL/6 mice, 60% high-fat diet); assay: non-alcoholic fatty liver disease model, 60% high-fat diet (Experimental Example 7); conditions: 20 nmol/kg s.c. once every other day for 2 weeks
Method: Specifically, first of all, a laboratory animal model of non-alcoholic fatty liver diseases was prepared by feeding a 60% high-fat diet to normal C57BL/6 mice (approximately 6 weeks old) for approximately 24 weeks, and increasing the body weights of the mice to approximately 50 g in average. Thereafter, the conjugate of Example 2 was administered by subcutaneous injection at a dose of 20 nmol/kg once every other day for 2 weeks. […] After the 2-week administration of the drug, blood was collected from the mice to measure a serum cholesterol concentration, and the livers were extracted, weighed, embedded in paraffin, and then microtomed into thin slices. Thereafter, the liver biopsy was conducted using a hematoxylin & eosin (H&E).

[8] = test system: animal model of non-alcoholic fatty liver diseases (C57BL/6 mice, high-trans-fat diet); assay: non-alcoholic fatty liver disease model, high-trans-fat diet (Experimental Example 8); conditions: 20 nmol/kg s.c. once every three days for 4 weeks, also lowered vs liraglutide
Method: First of all, a laboratory animal model of non-alcoholic fatty liver diseases was prepared by feeding a high-trans-fat diet, which contained 40% high fats, 20% fructose, and 2% cholesterol, to normal C57BL/6 mice (approximately 6 weeks old) for approximately 16 weeks. Thereafter, the conjugate of Example 2 was administered by subcutaneous injection at a dose of 20 nmol/kg once every three days for 4 weeks. […] After the 4-week experiment was completed, a level of serum cholesterol, the liver weights, and the hepatic triglycerides (hepatic TGs) were measured.

[9] = test system: animal model of non-alcoholic fatty liver diseases (C57BL/6 mice, high-trans-fat diet); assay: liver biopsy and NAFLD activity score, high-trans-fat diet model (Experimental Example 9); conditions: 20 nmol/kg s.c. once every three days for 4 weeks
Method: After the experiment was conducted in the same manner as in Experimental Example 8, a liver biopsy was conducted and an NAFLD activity score (NAS) was measured to check a preventing or therapeutic effect on non-alcoholic fatty liver diseases. An experiment was performed in the same manner as in Experimental Example 8, after the 4-week administration of the conjugate of Example 2, the mouse livers were extracted, embedded in paraffin, and then microtomed into thin slices. Thereafter, a hematoxylin & eosin (H&E) stain and an oil-red-O stain were conducted.

[10] = 0 min after 2 g/kg glucose i.p.
[11] = 15 min after 2 g/kg glucose i.p.
[12] = 30 min after 2 g/kg glucose i.p.
[13] = 60 min after 2 g/kg glucose i.p.
[14] = 90 min after 2 g/kg glucose i.p.
[15] = 120 min after 2 g/kg glucose i.p.

## Example 2: Conjugate of polypeptide H(Aib)QGTFTSDYSKYLDEQAAKEFVQWLMNTC (SEQ ID NO. 2) and tri-branched mPEG-MAL (MW: 50 kDa) (H[Aib]QGTFTSDYSKYLDEQAAKEFVQWLMNTC(tri‑branched mPEG‑MAL 50 kDa); lactam (positions not given here); not fully specified (bridges); printed as H(Aib)QGTFTSDYSKYLDEQAAKEFVQWLMNTC)
[1]; [10]
  blood glucose in ipGTT: 40
[1]; [11]
  blood glucose in ipGTT: 216
[1]; [12]
  blood glucose in ipGTT: 172
[1]; [13]
  blood glucose in ipGTT: 61
[1]; [14]
  blood glucose in ipGTT: 48
[1]; [15]
  blood glucose in ipGTT: 44
[1]
  increase in blood glucose in ipGTT vs non-treated group: an increase in blood glucose was significantly reduced
db/db mice [2]; [10]
  blood glucose in ipGTT: 63
db/db mice [2]; [11]
  blood glucose in ipGTT: 190
db/db mice [2]; [12]
  blood glucose in ipGTT: 246
db/db mice [2]; [13]
  blood glucose in ipGTT: 341
db/db mice [2]; [14]
  blood glucose in ipGTT: 356
db/db mice [2]; [15]
  blood glucose in ipGTT: 396
db/db mice [2]; db/db mice after 12-day administration
  glucose tolerance in ipGTT: higher glucose tolerance than the non-treated group
db/db mice [3]
  level of glycated hemoglobin (HbA1c): significantly lower a level of glycated hemoglobin
[4]; 20 nmol/kg s.c. once every other day for 2 weeks
  effect on body weight loss: significant effect on the body weight loss
[4]; 40 nmol/kg s.c. once a week for 2 weeks
  effect on body weight loss with extended interval: the same effect on the body weight loss
[4]; 20 vs 40 nmol/kg s.c. once every other day for 2 weeks
  dose dependence of body weight loss: dose-dependent response
[5]
  level of blood glucose vs control: a level of blood glucose was lowered
[6]
  increase in blood glucose in ipGTT vs control: an increase in blood glucose was significantly reduced
[7]; H&E, also reduced vs liraglutide, FIG. 9
  hepatic steatosis in liver biopsy vs non-treated group: significantly reduced
[7]; also lowered vs liraglutide, FIG. 7
  level of serum cholesterol vs non-treated group: significantly lowered
[7]; also lowered vs liraglutide, FIG. 8
  liver weights vs non-treated group: significantly lowered
[8]; FIG. 10
  level of serum cholesterol vs non-treated group: significantly lowered
[8]; FIG. 11
  liver weights vs non-treated group: significantly lowered
[8]; FIG. 12
  hepatic triglycerides vs non-treated group: significantly lowered
[9]; FIG. 13
  hepatic steatosis vs non-treated group and positive control: significantly reduced
[9]; FIG. 14
  NAFLD activity score (NAS) vs non-treated group and positive control: significantly reduced

— patent US12338270B2, “Pharmaceutical composition comprising polypeptide” (D&D Pharmatech Inc., priority 2018, dated 2025)
